Assay results taken from patent publication US11230526B1, “Cylcoalkenyl derivatives useful as agonists of the GPR120 and/or GPR40 receptors” (Janssen Pharmaceutica NV, priority 2018, dated 2022).

Legend:
Human GPR120 short form = target: T1, Human GPR120 short form (Homo sapiens, UniProt Q5NUL3); assay: Human GPR120 calcium flux assay, Procedure Calcium B (4200 cells/well); assay type: cell-based
T1 construct: expressed in transfected cells
T1 sequence (Q5NUL3 1-361): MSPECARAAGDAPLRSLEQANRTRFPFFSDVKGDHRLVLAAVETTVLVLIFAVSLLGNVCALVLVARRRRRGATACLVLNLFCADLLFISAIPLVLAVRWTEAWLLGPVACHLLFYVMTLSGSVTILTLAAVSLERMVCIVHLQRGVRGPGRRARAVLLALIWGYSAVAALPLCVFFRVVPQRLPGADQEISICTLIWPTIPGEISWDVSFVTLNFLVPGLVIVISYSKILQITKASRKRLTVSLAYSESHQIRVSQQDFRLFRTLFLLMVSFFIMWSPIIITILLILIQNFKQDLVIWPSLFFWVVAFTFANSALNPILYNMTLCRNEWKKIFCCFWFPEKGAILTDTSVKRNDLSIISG
Method in brief: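 Agonist EC50 came from a four-parameter fit of RFU (Fmax−Fmin) read over 300 s on FLIPR. Cells were HEK293 stably transfected with human GPR120 (NM_001195755.1) at 4200 per well, serum-starved 1 h and loaded with Fluo-4 NW dye with probenecid before ligand addition.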

human GPR40 = target: T2, human GPR40 (Homo sapiens, UniProt O14842); assay: GPR40 calcium flux assay, human GPR40; assay type: cell-based; conditions: HEK293 cells stably expressing GPR40; table does not say human or rat
T2 construct: expressed in transfected cells
Method in brief: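 Cells preincubated 1 h at 37° C. in HBSS, 20 mM HEPES, 0.1% BSA, then Fluo 8 calcium dye 30 min at 37° C. and 15 min at room temperature.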

T2 sequence (O14842 whole entry): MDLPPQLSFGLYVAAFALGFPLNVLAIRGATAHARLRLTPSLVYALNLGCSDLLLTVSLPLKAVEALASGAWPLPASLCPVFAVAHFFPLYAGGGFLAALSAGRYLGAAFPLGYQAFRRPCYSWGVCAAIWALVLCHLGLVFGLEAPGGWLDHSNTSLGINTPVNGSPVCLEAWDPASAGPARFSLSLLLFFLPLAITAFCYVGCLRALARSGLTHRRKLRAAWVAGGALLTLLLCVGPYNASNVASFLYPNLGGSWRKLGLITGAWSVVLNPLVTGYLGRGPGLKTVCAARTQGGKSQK

Row | SMILES | EC50 (Human GPR120 short form) [nM] | EC50 (human GPR40) [nM]
1 | CC(C)CC1=C(COc2ccc(CCC(=O)O)c(Cl)c2)CCC1 [Compound 394, 3-[2-chloro-4-[(2-isobutylcyclopenten-1-yl)methoxy]phenyl]Propanoic Acid] | 1410 | 129
2 | O=C(O)CCc1ccc(OCC2=C(C3CCCC3)CCC2)cc1 [Compound 395, 3-[4-[(2-cyclopentylcyclopenten-1-yl)methoxy]phenyl]Propanoic Acid] | 255 | 188
3 | O=C(O)CCc1ccc(OCC2=C(C3CCC3)CCC2)cc1 [Compound 397, 3-[4-[(2-cyclobutylcyclopenten-1-yl)methoxy]phenyl]Propanoic Acid] | 592 | 418
4 | O=C(O)CCc1ccc(OCC2=C(C3CCCC3)CCC2)cc1C(F)(F)F [Compound 398, 3-[4-[(2-cyclopentylcyclopenten-1-yl)methoxy]-2-(trifluoromethyl)phenyl]Propanoic Acid] | 556 | 8
5 | O=C(O)CCc1ccc(OCC2=C(C3CCC3)CCC2)cc1C(F)(F)F [Compound 399, 3-[4-[(2-cyclobutylcyclopenten-1-yl)methoxy]-2-(trifluoromethyl)phenyl]Propanoic Acid] | 671 | 15
6 | O=C(O)CCc1ccc(OCC2=C(C3CCC3)CCC2)cc1Cl [Compound 400, 3-[2-chloro-4-[(2-cyclobutylcyclopenten-1-yl)methoxy]phenyl]Propanoic Acid] | 995 | 135
7 | O=C(O)CCc1ccc(OCC2=C(c3ccc(F)cc3)CC(F)(F)C2)cc1Cl [Compound 401, 3-[2-chloro-4-[[4,4-difluoro-2-(4-fluorophenyl)cyclopenten-1-yl]methoxy]phenyl]Propanoic Acid] | 304 | 311
8 | Cc1cc(OCC2=C(c3ccc(F)cc3)CC(F)(F)C2)c(F)cc1CCC(=O)O [Compound 402, 3-[4-[[4,4-difluoro-2-(4-fluorophenyl)cyclopenten-1-yl]methoxy]-5-fluoro-2-methyl-phenyl]Propanoic Acid] | 278 | 1090
9 | O=C(O)CCc1ccc(OCC2=C(C(=O)c3ccccc3)CCC2)cc1C(F)(F)F [Compound 403, 3-[4-[(2-benzoylcyclopenten-1-yl)methoxy]-2-(trifluoromethyl)phenyl]Propanoic Acid] | 1490 | 1140
10 | O=C(O)CCc1ccc(OCC2=C(Cc3ccccc3F)CCC2)cc1C(F)(F)F [Compound 404, 3-[4-[[2-[(2-fluorophenyl)methyl]cyclopenten-1-yl]methoxy]-2-(trifluoromethyl)phenyl]Propanoic Acid] | 1910 | 105
11 | Cc1cccc(CC2=C(COc3ccc(CCC(=O)O)c(C(F)(F)F)c3)CCC2)c1 [Compound 405, 3-[4-[[2-(m-tolylmethyl)cyclopenten-1-yl]methoxy]-2-(trifluoromethyl)phenyl]Propanoic Acid] | 1820 | 205
12 | Cc1cccc(CC2=C(COc3ccc(CCC(=O)O)c(Cl)c3)CCC2)c1 [Compound 406, 3-[2-chloro-4-[[2-(m-tolylmethyl)cyclopenten-1-yl]methoxy]phenyl]Propanoic Acid] | > 5000 | 152
13 | O=C(O)CCc1ccc(OCC2=C(C3CCCC3)CC(F)(F)C2)cc1C(F)(F)F [Compound 407, 3-[4-[(2-cyclopentyl-4,4-difluoro-cyclopenten-1-yl)methoxy]-2-(trifluoromethyl)phenyl]Propanoic Acid] | 150 | 30
14 | O=C(O)CCc1ccc(OCC2=C(C3CCCC3)CC(F)(F)C2)cc1Cl [Compound 409, 3-[2-chloro-4-[(2-cyclopentyl-4,4-difluoro-cyclopenten-1-yl)methoxy]phenyl]Propanoic Acid] | 86 | 25
15 | CC(C)c1cc(OCC2=C(C3CCCC3)CCC2)ccc1CCC(=O)O [Compound 410, 3-[4-[(2-cyclopentylcyclopenten-1-yl)methoxy]-2-isopropyl-phenyl]Propanoic Acid] | 996 | 128

Next, values leading:

Row | EC50 (Human GPR120 short form) [nM] | EC50 (human GPR40) [nM] | SMILES
16 | > 5000 | 133 | O=C(O)CCc1ccc(OCC2=C(C3CCC(F)(F)CC3)CCC2)cc1Cl [Compound 411, 3-[2-chloro-4-[[2-(4,4-difluorocyclohexyl)cyclopenten-1-yl]methoxy]phenyl]Propanoic Acid]
17 | 4650 | 513 | O=C(O)CCc1ccc(OCC2=C(C3CCC(F)(F)CC3)CCC2)cc1 [Compound 412, 3-[4-[[2-(4,4-difluorocyclohexyl)cyclopenten-1-yl]methoxy]phenyl]Propanoic Acid]
18 | 1800 | > 10000 | Cc1c(CCC(=O)O)ccc(OCC2=C(C3CCC(F)(F)CC3)CCC2)c1C [Compound 413, 3-[4-[[2-(4,4-difluorocyclohexyl)cyclopenten-1-yl]methoxy]-2,3-dimethyl-phenyl]Propanoic Acid]
19 | > 5000 | 132 | O=C(O)CCc1ccc(OCC2=C(C3CCOCC3)CCC2)cc1C(F)(F)F [Compound 415, 3-[4-[(2-tetrahydropyran-4-ylcyclopenten-1-yl)methoxy]-2-(trifluoromethyl)phenyl]Propanoic Acid]
20 | > 5000 | 94 | O=C(O)CCc1ccc(OCC2=C(C3CCC(F)(F)CC3)CCC2)cc1C(F)(F)F [Compound 416, 3-[4-[[2-(4,4-difluorocyclohexyl)cyclopenten-1-yl]methoxy]-2-(trifluoromethyl)phenyl]Propanoic Acid]
21 | > 5000 | 1010 | Cc1cc(OCC2=C(C3CCC(F)(F)CC3)CCC2)c(F)cc1CCC(=O)O [Compound 417, 3-[4-[[2-(4,4-difluorocyclohexyl)cyclopenten-1-yl]methoxy]-5-fluoro-2-methyl-phenyl]Propanoic Acid]
22 | > 5000 | 171 | O=C(O)CCc1ccc(OCC2=C(C3CCOCC3)CCC2)cc1Cl [Compound 418, 3-[2-chloro-4-[(2-tetrahydropyran-4-ylcyclopenten-1-yl)methoxy]phenyl]Propanoic Acid]
23 | 3170 | > 10000 | O=C(O)CCc1cc(F)c(OCC2=C(C3CCC(F)(F)CC3)CCC2)c(F)c1 [Compound 419, 3-[4-[[2-(4,4-difluorocyclohexyl)cyclopenten-1-yl]methoxy]-3,5-difluoro-phenyl]Propanoic Acid]
24 | 222 | 25 | O=C(O)CCc1ccc(OCC2=C(C3CCCC3)CCC2)cc1Br [Compound 421, 3-[2-bromo-4-[(2-cyclopentylcyclopenten-1-yl)methoxy]phenyl]Propanoic Acid]
25 | 177 | 48 | Cc1cc(OCC2=C(C3CCCC3)CCC2)ccc1CCC(=O)O [Compound 422, 3-[4-[(2-cyclopentylcyclopenten-1-yl)methoxy]-2-methyl-phenyl]Propanoic Acid]
26 | 272 | 61 | CCc1cc(OCC2=C(C3CCCC3)CCC2)ccc1CCC(=O)O [Compound 423, 3-[4-[(2-cyclopentylcyclopenten-1-yl)methoxy]-2-ethyl-phenyl]Propanoic Acid]
27 | 245 | 248 | Cc1cc(OCC2=C(C3CCCC3)CCC2)c(F)cc1CCC(=O)O [Compound 424, 3-[4-[(2-cyclopentylcyclopenten-1-yl)methoxy]-5-fluoro-2-methyl-phenyl]Propanoic Acid]
